Reference: patent publication US20070004036A1, “Methods and compositions for keratinocyte culture” (priority 2005, published 2007)

System: Human dermal adult and newborn skin fibroblasts
Assay: Fibroblast proliferation in SFM and serum-containing media
Format: cell-based
Conditions: primary and secondary culture, FIG. 5
Description: Human dermal adult and newborn skin fibroblasts were cultured in a SFM and serum-containing media (DMEM 5% FBS). Collagenase (1 μg/ml) was added to the DMEM serum free media (SFM) and tested on primary and secondary culture of human adult and newborn fibroblasts. In both cases (SFM and DMEM 5%) Collagenase increase cell proliferation up to 2-2.5 fold over the controls.

Collagenase
increase in cell proliferation over the controls (DMEM 5% FBS): 2-2.5 fold
increase in cell proliferation over the controls (SFM, collagenase 1 μg/ml): 2-2.5 fold
